Legend:
[1] = molecular target: Transcriptional enhancer factor TEF-3 (Homo sapiens, UniProt Q15561); test: Inhibition of GST-tagged recombinant TEAD4 (unknown origin) (217 to 434 residues) expressed in Escherichia coli BL21 (DE3) by fluorescence polarization assay
[2] = Binding affinity to rat heart mitochondria CPT1 assessed as inhibition constant incubated for 3 to 6 mins by Liquid scintillation counting method

Chain of Transcriptional enhancer factor TEF-3 (Q15561 whole entry, the tested form may be a part): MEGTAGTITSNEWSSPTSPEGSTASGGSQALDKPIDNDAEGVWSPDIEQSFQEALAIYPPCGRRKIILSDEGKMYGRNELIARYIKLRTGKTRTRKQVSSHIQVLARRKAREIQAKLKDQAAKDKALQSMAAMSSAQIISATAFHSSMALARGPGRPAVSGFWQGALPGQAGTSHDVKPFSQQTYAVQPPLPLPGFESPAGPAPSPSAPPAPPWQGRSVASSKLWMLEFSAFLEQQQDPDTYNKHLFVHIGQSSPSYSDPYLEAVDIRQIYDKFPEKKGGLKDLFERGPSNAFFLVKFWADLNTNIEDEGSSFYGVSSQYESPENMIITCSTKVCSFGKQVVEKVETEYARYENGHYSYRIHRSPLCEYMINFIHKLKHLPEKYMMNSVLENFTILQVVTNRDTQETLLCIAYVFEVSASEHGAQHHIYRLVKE

EC50 [1] [µM] | Ki [2] [µM] | Compound
5.9 |  | O=C(CCl)c1ccccc1Nc1cccc(C(F)(F)F)c1
 | 2.8 | CCCCCCCCCCCCCCC[C@]1(O)C[C@H](CC(=O)[O-])C[N+](C)(C)C1

Source: BindingDB's records for PubMed 38621327 (Hebei University)
